System: YAP/TAZ-TEAD transcription
Test: Reporter gene assay for measuring the inhibition of YAP/TAZ-TEAD transcription (TEAD-responsive element luciferase reporter in Hek293T cells)
Type: cell-based
Conditions: Hek293T cells transiently transfected with TEAD-responsive element luciferase reporter, 24 hours incubation
Experimental: Hek293T cells are cultured in DMEM supplemented with 10% fetal bovine serum, Sodium pyruvate, Sodium bicarbonate, L-glutamine. The cells are harvested and transiently transfected with TEAD-responsive element luciferase reporter. Transfected cells are plated in 384-wells plate containing pre-diluted compounds. After 24 hours incubation at 37° C./5%CO2, assay plates were cooled down to RT and levelled to an equal volume per well, prior to the addition of 25 uL luciferase substrate SteadyLite (Perkin Elmer)/well. The plate was shaken for 10 min at 600 rpm, centrifuged for 1min at 500 rpm and measured with an Envision reader (PerkinElmer). The amount of relative light units produced by the TEAD reporter is used to calculated percent of inhibition.
The percent of reporter inhibition was calculated in the presence of a positive control inhibitor (100% inhibition) versus a condition with the presence of the vehicle basal activity of the reporter (0% inhibition). The ability of a test compound to inhibit this activity was determined as:
Percentage inhibition=[1-((RLU determined in the presence of vehicle—RLU determined for sample with test compound present) divided by (RLU determined in the presence of vehicle — RLU determined for sample with positive control inhibitor))] * 100
The activities of the example compounds tested are depicted in the table below. The activity ranges A, B and C refer to EC50 values in the reporter gene assay as described as follows: “A”: EC50 <1 μM; “B” : 1 μM≤EC50≤20 μM and “C” : EC50>20 μM, NT=not tested.

SMILES | EC50 (Homo sapiens, HEK-293T, 24 h) | EC50
C=CC(=O)NCC1CN(Cc2ccccc2)c2ccnn2C1 (single isomer, unassigned) [Cpd. No. 049-En2, (R)- or (S)-N-((4-benzyl-4,5,6,7-tetrahydropyrazolo[1,5-a]pyrimidin-6-yl)methyl)acrylamide] | < 1000 nM | 
CS(=O)(=O)N1CCC2(CN(c3ccc(C(F)(F)F)cc3)c3ccnn3C2)C1=O (single isomer, unassigned) [Cpd. No. 089-En1, (R)- or (S)-1′-(methylsulfonyl)-4-(4-(trifluoromethyl)phenyl)-4,5-dihydro-7H-spiro[pyrazolo[1,5-a]pyrimidine-6,3′-pyrrolidin]-2′-one] | > 20000 nM | 
C=CC(=O)NCC1CN(c2ccc(SC(F)(F)F)cc2)c2ccnn2C1 (centres unmarked) [Cpd. No. 020, N-((4-(4-((trifluoromethyl)thio)phenyl)-4,5,6,7-tetrahydropyrazolo[1,5-a]pyrimidin-6-yl)methyl)acrylamide] | < 1000 nM | 
C=CC(=O)N1CCC2(C1)CN(c1ccc(C(F)(F)F)cc1)c1ccnn1C2 (single isomer, unassigned) [Cpd. No. 088-En2, (R)- or (S)-1-(4-(4-(trifluoromethyl)phenyl)-4,5-dihydro-7H-spiro[pyrazolo[1,5-a]pyrimidine-6,3′-pyrrolidin]-1′-yl)prop-2-en-1-one] |  | < 1000 nM
C=CC(=O)NC1CN(c2ccc(C(F)(F)F)c(F)c2)c2ccnn2C1 (centres unmarked) [Cpd. No. 064, N-(4-(3-fluoro-4-(trifluoromethyl)phenyl)-4,5,6,7-tetrahydropyrazolo[1,5-a]pyrimidin-6-yl)acrylamide] | < 1000 nM | 
C=CC(=O)NCC1CN(c2ccc(C(F)F)nc2)c2ccnn2C1 (centres unmarked) [Cpd. No. 010, N-((4-(6-(difluoromethyl)pyridin-3-yl)-4,5,6,7-tetrahydropyrazolo[1,5-a]pyrimidin-6-yl)methyl)acrylamide] |  | < 1000 nM
C=CC(=O)NCC1CN(c2ccc(F)cc2)c2ccnn2C1 (single isomer, unassigned) [Cpd. No. 006-En2, (R)- or (S)-N-((4-(4-fluorophenyl)-4,5,6,7-tetrahydropyrazolo[1,5-a]pyrimidin-6-yl)methyl)acrylamide] |  | < 1000 nM
C=CC(=O)NCC1CN(c2ccc(C(F)F)cc2)c2ccnn2C1 (single isomer, unassigned) [Cpd. No. 009-En1, (R)- or (S)-N-((4-(4-(difluoromethyl)phenyl)-4,5,6,7-tetrahydropyrazolo[1,5-a]pyrimidin-6-yl)methyl)acrylamide] |  | 1000 to 20000 nM
C=CC(=O)NCC1CN(c2cccc(F)c2)c2ccnn2C1 (single isomer, unassigned) [Cpd. No. 004-En2, (R)- or (S)-N-((4-(3-fluorophenyl)-4,5,6,7-tetrahydropyrazolo[1,5-a]pyrimidin-6-yl)methyl)acrylamide] |  | < 1000 nM
C=CC(=O)NCC1CN(c2ccc(C(F)(F)F)cc2)c2cc(C(F)(F)F)nn2C1 (single isomer, unassigned) [Cpd. No. 034-En1, (R)- or (S)-N-((2-(trifluoromethyl)-4-(4-(trifluoromethyl)phenyl)-4,5,6,7-tetrahydropyrazolo[1,5-a]pyrimidin-6-yl)methyl)acrylamide] |  | < 1000 nM
C#CCNCC1CN(c2ccc(C(F)(F)F)cc2)c2ccnn2C1 (centres unmarked) [Cpd. No. 044, N-((4-(4-(trifluoromethyl)phenyl)-4,5,6,7-tetrahydropyrazolo[1,5-a]pyrimidin-6-yl)methyl)prop-2-yn-1-amine] | > 20000 nM | 
C#Cc1ccc(N2CC(CNC(=O)C=C)Cn3nccc32)cc1 (centres unmarked) [Cpd. No. 036, N-((4-(4-ethynylphenyl)-4,5,6,7-tetrahydropyrazolo[1,5-a]pyrimidin-6-yl)methyl)acrylamide] | < 1000 nM | 
C=CC(=O)NCC1CN(C(=O)C2CCCCC2)c2ccnn2C1 (single isomer, unassigned) [Cpd. No. 046-En2, (R)- or (S)-N-((4-(cyclohexanecarbonyl)-4,5,6,7-tetrahydropyrazolo[1,5-a]pyrimidin-6-yl)methyl)acrylamide] |  | 1000 to 20000 nM
C=CC(=O)NCC1CN(c2ccc(C(F)(F)F)cc2)c2cc(C3CC3)nn2C1 (single isomer, unassigned) [Cpd. No. 031-En1, (R)- or (S)-N-((2-cyclopropyl-4-(4-(trifluoromethyl)phenyl)-4,5,6,7-tetrahydropyrazolo[1,5-a]pyrimidin-6-yl)methyl)acrylamide] |  | < 1000 nM
C=CC(=O)NCC1CN(c2ccc(C(F)F)cc2)c2ccnn2C1 (single isomer, unassigned) [Cpd. No. 009-En2, (R)- or (S)-N-((4-(4-(difluoromethyl)phenyl)-4,5,6,7-tetrahydropyrazolo[1,5-a]pyrimidin-6-yl)methyl)acrylamide] |  | < 1000 nM
C=CC(=O)NCC1CN(c2ccc(C(F)F)nc2)c2ccnn2C1 (single isomer, unassigned) [Cpd. No. 010-En1, (R)- or (S)-N-((4-(6-(difluoromethyl)pyridin-3-yl)-4,5,6,7-tetrahydropyrazolo[1,5-a]pyrimidin-6-yl)methyl)acrylamide] |  | > 20000 nM
Cn1ncc2c1CC(CNS(C)(=O)=O)CN2c1ccc(C(F)(F)F)cc1 (centres unmarked) [Cpd. No. 076, N-((1-methyl-4-(4-(trifluoromethyl)phenyl)-4,5,6,7-tetrahydro-1H-pyrazolo[4,3-b]pyridin-6-yl)methyl)methanesulfonamide] | > 20000 nM | 
CCC(=O)NCC1CN(Cc2ccc(C(F)(F)F)cc2)c2ccnn2C1 (centres unmarked) [Cpd. No. 050, N-((4-(4-(trifluoro-methyl)benzyl)-4,5,6,7-tetrahydropyrazolo[1,5-a]pyrimidin-6-yl)-methyl)propionamide] | > 20000 nM | 
CNC(=O)C1CN(c2ccc(C(F)(F)F)cc2)c2ccnn2C1 (centres unmarked) [Cpd. No. 092, N-methyl-4-(4-(trifluoromethyl)phenyl)-4,5,6,7-tetrahydropyrazolo[1,5-a]pyrimidine-6-carboxamide] | > 20000 nM | 
C=CC(=O)NCC1CN(c2ccc(C(F)(F)F)c(F)c2)c2ccnn2C1 (single isomer, unassigned) [Cpd. No. 015-En2, (R)- or (S)-N-((4-(3-fluoro-4-(trifluoromethyl)phenyl)-4,5,6,7-tetrahydropyrazolo[1,5-a]pyrimidin-6-yl)methyl)acrylamide] |  | < 1000 nM
C=CC(=O)NCC1CN(c2ccc(C(F)(F)F)cc2)c2ccnn2C1 (single isomer, unassigned) [Cpd. No. 002-En2, (R)- or (S)-N-((4-(4-(trifluoromethyl)phenyl)-4,5,6,7-tetrahydropyrazolo[1,5-a]pyrimidin-6-yl)methyl)acrylamide] |  | < 1000 nM
C=CC(=O)NCC1CN(C(=O)C2CCCCC2)c2ccnn2C1 (single isomer, unassigned) [Cpd. No. 046-En1, (R)- or (S)-N-((4-(cyclohexanecarbonyl)-4,5,6,7-tetrahydropyrazolo[1,5-a]pyrimidin-6-yl)methyl)acrylamide] |  | 1000 to 20000 nM
CS(=O)(=O)NC(=O)C1CN(c2ccc(C(F)(F)F)cc2)c2ccnn2C1 (centres unmarked) [Cpd. No. 093, N-(methylsulfonyl)-4-(4-(trifluoromethyl)phenyl)-4,5,6,7-tetrahydropyrazolo[1,5-a]pyrimidine-6-carboxamide] | > 20000 nM | 
C=CC(=O)NC1CN(c2ccc(C(F)(F)F)cc2F)c2ccnn2C1 (single isomer, unassigned) [Cpd. No. 065-En2, (R)- or (S)-N-(4-(2-fluoro-4-(trifluoromethyl)phenyl)-4,5,6,7-tetrahydropyrazolo[1,5-a]pyrimidin-6-yl)acrylamide] |  | < 1000 nM
CN(C)C/C=C/C(=O)NCC1CN(c2ccc(C(F)(F)F)cc2)c2ccnn2C1 (centres unmarked) [Cpd. No. 041, (E)-4-(dimethylamino)-N-((4-(4-(trifluoromethyl)phenyl)-4,5,6,7-tetrahydropyrazolo[1,5-a]pyrimidin-6-yl)methyl)but-2-enamide] | 1000 to 20000 nM | 
C=CC(=O)NCC1CN(c2ccc(-c3ccccc3)cc2)c2ccnn2C1 (centres unmarked) [Cpd. No. 017, N-((4-([1,1′-biphenyl]-4-yl)-4,5,6,7-tetrahydropyrazolo[1,5-a]pyrimidin-6-yl)methyl)acrylamide] |  | 1000 to 20000 nM
C=CC(=O)NCC1CN(c2cccc(C(F)(F)F)c2)c2ccnn2C1 (centres unmarked) [Cpd. No. 003, N-((4-(3-(trifluoromethyl)phenyl)-4,5,6,7-tetrahydropyrazolo[1,5-a]pyrimidin-6-yl)methyl)acrylamide] | < 1000 nM | 
C=CC(=O)NCC1CN(c2ccc(C(F)(F)F)cc2)c2cc(C#N)nn2C1 (centres unmarked) [Cpd. No. 033, N-((2-cyano-4-(4-(trifluoromethyl)phenyl)-4,5,6,7-tetrahydropyrazolo[1,5-a]pyrimidin-6-yl)methyl)acrylamide] | < 1000 nM | 
C=CC(=O)NCC1CN(c2ccc(C(F)(F)F)cc2)c2cnc(C(F)(F)F)n2C1 (single isomer, unassigned) [Cpd. No. 094-En1, (R)- or (S)-N-((6-(trifluoromethyl)-1-(4-(trifluoromethyl)phenyl)-1,2,3,4-tetrahydroimidazo[1,5-a]pyrimidin-3-yl)methyl)acrylamide] |  | < 1000 nM

Reference: patent publication US20230279016A1, “Tetrahydropyrazolopyrimidines and Related Analogs for Inhibiting YAP/TAZ-TEAD” (THE KATHOLIEKE UNIVERSITEIT LEUVEN, priority 2021, published 2023)
